Data: paper PMC9791135, “A penetratin-derived peptide reduces the membrane permeabilization and cell toxicity of α-synuclein oligomers” (The Journal of Biological Chemistry, 2022)
pKd: −log10 of the molar value. Where a SMILES comes first, the peptide text is derived from it.

How the values were obtained:
α-syn [1] = details: cited from earlier work
Description: Cell-penetrating peptides (CPPs) ([57]) are defined as a short relatively nontoxic and partly hydrophobic and/or polybasic peptides ([…] 5–35 amino acid residues), with a net positive charge at physiological pH. CPPs have the ability of interacting with negatively charged groups on the cellular membrane, which results in their internalization ([58], [59]) but can also cotransport a variety of cargoes inside the cells ([58], [60], [61], [62]). Cationic CPPs are able to translocate across membranes in a nonendocytotic fashion, generally by one of following mechanisms: the inverted micelle mo ...

[2] = vesicles formed by DOPG and other negatively charged lipids; cited from earlier work
Protocol: Penetratin forms β-structures on vesicles formed by DOPG and other negatively charged lipids (at concentrations >10^−3 mg/ml), leading to membrane perturbation ...

αSOs = target: T1, αSOs (Homo sapiens, UniProt P37840); assay: Calcein release assay, αSOs together with peptides; assay type: biochemical
T1 construct: made in house; host or cells: Escherichia coli BL21 (DE3); oligomers formed by shaking the monomer and isolated by SEC (Superose 6)
Protocol: αSOs show cytotoxic properties, which have been attributed to their membrane-disrupting ability ([69]). To examine the effect of peptides on membrane permeabilization by αSOs, we used a simple calcein release assay. αSOs, peptides, and aSO–peptide mixtures at 10^−6 to 10^−1 mg/ml peptide were added to calcein-loaded DOPG vesicle, and the extent of calcein release was monitored for 30 min by the increase in fluorescence as calcein leaks out upon membrane permeabilization, leading to dilution and the loss of self-quenching. The time-dependent calcein release data from DOPG vesicles ([70], [71]) in the presence of peptides, αSOs, and αSO–peptides are shown in Figs. S9 and S10. In order to allow easy comparison of all peptides, the calcein release versus concentration (peptides and αSOs) were plotted at the plateau point of release (Fig. 5, A–C). […] Figure 5D compares calcein release percentages of data represented in Figure 5, A and B at peptide concentrations between 0.001 and 0.1 mg/ml, where we see the largest extent of calcein release in general.
Calcein-filled vesicles of DOPG were prepared as described before ([38]). Briefly, DOPG was dissolved in PBS to […], in the presence of calcein at self-quenching concentrations (70 mM) and subjected to 10 freeze–thaw cycles between liquid nitrogen and a 50 °C water bath. After 21 times extrusion through a 100 nm filter, free calcein was separated from vesicles with a PD-10 desalting column (GE Healthcare). Vesicles were stored at 4 °C and used for calcein release assays within 24 h.
Calcein release was measured by mixing peptides and/or αSOs at a final concentration of 10^−6 to 10^−1 mg/ml and 5.2 μg/ml, respectively, in 148 μl with 2 μl of calcein vesicles, and were then loaded onto a 96-well plate (Nunc, Thermo Fischer Scientific) in triplicate. The plate was sealed with Crystal clear sealing tape (Hampton Research), and fluorescence was measured (excitation: 485 nm and emission: 520 nm) for 1 h at 37 °C every 2 min with a 2 s autoshake before each reading on a fluorescence plate reader (Tecan). Finally, 2 μl Triton X-100 (0.2% [v/v]) was added to lyse vesicles, and the maximal fluorescence signal was measured for 20 min under the same reading condition. Background fluorescence was subtracted, and the average signal of calcein release before addition of Triton X-100 (F), after treatment with Triton X-100 (Ft) and for the buffer control (F0) were determined, and calcein release percentage was calculated as follow (Equation 1):(1) CalceinRelease%(CR%)=(F−F0)/(Ft−F0)

SH-SY5Y cells [3] = assay: MTT cell viability assay, substance alone
Protocol: (§1) The effect of the peptides on αSOs toxicity in SH-SY5Y cells using 3-(4, 5-dimethylthiazol-2-yl)-2,5-diphenyltetrazolium bromide (MTT) cell viability assay was also tested to complement our calcein data.
(§2) We used the MTT assay to measure cell viability after 24 h treatment with αSOs in the presence of peptides. SH-SY5Y cells were seeded in 96-well plates at a density of 5 × 10^4 cell/ml in Dulbecco's modified Eagle's medium supplemented with 10% FBS, 100 unit/ml penicillin, and […]. The cells were incubated in a humidified atmosphere incubator with 5% CO2 and 95% humidity at 37 °C for 24 h. The culture medium was then replaced with fresh medium containing 10 μM αSOs with peptides and incubated for another 24 h. Then the cell medium was replaced with a fresh medium containing 20% MTT (5 mg/ml), and the cells were incubated for an additional 4 h at 37 °C. Then 100 μl of dimethyl sulfoxide was added to dissolve formazan crystals by incubating for 30 min on a shaker at RT. Consequently, absorbance was measured by using a plate reader at 570 nm.

SH-SY5Y cells [4] = details: 10 μM αSOs (0.14 μg/ml) with 35 μg/ml peptide, 24 h, MTT
Protocol: as §1, §2

αSO = target: T2, αSO (Homo sapiens, UniProt P37840); assay: Microfluidic diffusional sizing binding affinity (Fluidity One-W), αSO; details: 60 μM labeled p216, 0–84 μM αSO, MilliQ water, 15 min in the dark; 1:1 binding fit of Rh; read-out: Dissociation binding constant (Kd) for αSO
T2 construct: made in house; host or cells: Escherichia coli BL21 (DE3); oligomers formed by shaking the monomer and isolated by SEC (Superose 6)
Protocol: (§3) To determine an actual binding affinity of p216 to αSOs and α-syn, the hydrodynamic radius (Rh) of labeled p216 bound to unlabeled αSOs–α-syn was determined by microfluidic diffusional sizing ([72]). […] Rather, a direct and easily interpretable parameter is provided in the form of the Rh. […] For both species, binding of peptide led to a significant increase in Rh, confirming peptide immobilization in complex with these states. The measured values of ca. 5 and 11 nm for α-syn and αSO, respectively, agree nicely with the known Rh of α-syn ([73]) (4 nm) and αSO (10 nm) ([74]).
(§4) Peptides were labeled with fluidiphore rapid amine 503 (Fluidic Analytics Limited), an amine-reactive fluorescent label whose absorbance shifts from 612 nm (free) to 503 nm when conjugated. About 1 mg dry fluidiphore dye was dissolved in 100 μl acetonitrile and stored at −20 °C. The peptide stock solutions were diluted into labeling buffer (0.1 M NaHCO3, pH 8.3) to a final concentration of 1 mg/ml (100 μl) and mixed with 3 μl of dye solution (final dye concentration of […]) and incubated for 30 min at RT. […]
(§5) Fluidity One-W (Fluidic Analytics Limited) ([101]) was used to measure the binding affinity and Rh of peptides bound to α-syn monomers and oligomers. We determined the lowest concentration of labeled peptides that could be detected by the instrument to be 60 μM. […]

α-syn [5] = target: T3, α-syn (Homo sapiens, UniProt P37840); assay: Microfluidic diffusional sizing binding affinity (Fluidity One-W), α-syn monomer; details: 60 μM labeled p216, 0–400 μM α-syn monomer, MilliQ water, 15 min in the dark; 1:1 binding fit of Rh; read-out: Dissociation binding constant (Kd) for α-syn
T3 construct: made in house; host or cells: Escherichia coli BL21 (DE3), plasmid pET11-D
Protocol: as §3, §4, §5

Molecule: RQIKIWFQNRRMKWKK [Penetratin, cell-penetrating peptide from the third helix of the Antennapedia protein homeodomain]
- Effect on fibrillation of α-syn (α-syn [1]): inhibit fibrillation of α-syn
- Concentration at which β-structures form on vesicles, leading to membrane perturbation and permeabilization [2]: > 10^−3 mg/ml

Molecule: CSCC[C@H](NC(=O)[C@H](CCCNC(=N)N)NC(=O)[C@H](CCCNC(=N)N)NC(=O)[C@H](CC(N)=O)NC(=O)[C@H](CCC(N)=O)NC(=O)[C@H](Cc1ccccc1)NC(=O)[C@@H](N)Cc1c[nH]c2ccccc12)C(=O)N[C@@H](CCCCN)C(=O)N[C@@H](Cc1c[nH]c2ccccc12)C(=O)N[C@@H](CCCCN)C(=O)N[C@@H](CCCCN)C(=O)O [p216] (H-WFQNRRMKWKK-OH)
- Reduction of αSO-induced membrane permeability (αSOs; calcein-filled DOPG LUVs, peptide concentration not stated at the place): 100%
- Reduction of αSOs-induced large anionic unilamellar vesicle membrane permeability (αSOs; peptide at 10^−1 to 10^−3 mg/ml): ~100%
- Cell viability (MTT) (SH-SY5Y cells [3]; SH-SY5Y cells, 35 μg/ml peptide alone, 24 h): 92%
- Toxicity to SH-SY5Y cells, in words (SH-SY5Y cells [3]; peptide alone, MTT): not toxic
- Increase of cell viability compared with αSOs alone (SH-SY5Y cells [4]): about 20%
- pKd (αSO): 5.57
- pKd (α-syn [5]): 4.51
